Data set [1] deals with aromatic amino acid synthesis. Conditions: cited from earlier work.
The conditions of data set [2]: cited from earlier work.
The conditions of data set [3]: cited from earlier work. This is another data set of the same source.
The conditions of data set [4]: cited from earlier work. This is another data set of the same source.
For data set [5] the following is noted: cited from earlier work. This is another data set of the same source.
The conditions of data set [6]: cited from earlier work. This is another data set of the same source.
The conditions of data set [7]: cited from earlier work. This is another data set of the same source.
The conditions of data set [8]: cited from earlier work. This is another data set of the same source.
For data set [9] the following is noted: cited from earlier work. This is another data set of the same source.
For data set [10] the following is noted: equimolar EDTA, neutral pH. The text has this: If instead of EDTA, complexing agents are used which form complexes of two or several ligands of the complexing agent per metal atom, then a correspondingly multiple (double, multiple) molar amount of the relevant ligands must be used in order to complex the trace elements in the solution.
For data set [11] the following is noted: cited from earlier work. This is another data set of the same source.

Regarding `O=C(O)CNCP(=O)(O)O` [C3H8O5NP, n-phosphomethylglicine], in [1], the “effect on aromatic amino acid synthesis” value was “inhibits the aromatic amino acid synthesis”.

Take `O=C(O)CN(CCN(CC(=O)O)CC(=O)O)CC(=O)O` [C10H16O8N2, ethylenediaminetetraacetic acid]: the “complexing of Ni^2+ in words” value in data set [2] is “very well”. Further, the “complexing of Cu^2+ in words” value in data set [3] was “very well”. Moreover, in [4], the “complexing of Fe^3+ in words” value is on record as “extremely well”. For the same compound, the “complexing of Mn^2+ in words” value in [5] was “very well”. In data set [6], the “complexing of Ca^2+ in words” value is reported as “very well”. Also, the “complexing of Co^2+ in words” value in data set [7] is given as “very well”. Moreover, in data set [8], the “complexing of Zn^2+ in words” value was “very well”. Further, in data set [9], the “complexing of Fe^2+ in words” value was “very well”. In data set [10], the “precipitation in the presence of H2S” value was “no precipitation”. Moreover, in data set [11], the “complexing of Mg^2+ in words” value is listed as “well”.
